The values that follow come from patent publication US20250163059A1, “HETEROCYCLIC KINASE INHIBITORS” (Incyte Corporation, priority 2023, published 2025).

In assay [1] the target is T1, catalytic domain (JH1) of JAK2 protein (Homo sapiens, UniProt O60674).
T1 construct: phosphorylated on the tyrosine residue by catalytic domain (JH1) of JAK2 protein; purchased BPS 40450
Description: JAK2 (JH1) Enzymatic Assay at ATP=Km (30 μM), TR-FRET. The assay is classed as biochemical. Conditions: 30 μM ATP (=Km), 60 min at 25° C., read-out: V617F ENZ 30 μM. The protocol: Example A. JAK2 (JH1) Enzymatic Assay at ATP=Km (30 μM)
Inhibitor potency was determined in TR-FRET assay, which measures HTRF signal generated as a result of Eu-labeled anti-phosphotyrosine antibody binding to Biotin-labeled peptide, phosphorylated on the tyrosine residue by catalytic domain (JH1) of JAK2 protein in the presence of ATP-Mg and Allophycocyanin-streptavidin (APC-SA). JH1 domain of JAK2 protein was purchased from BPS (#40450), Eu-W1204-labeled Anti-Phosphotyrosine Antibody (PY-20) and SureLight Allophycocyanin-streptavidin were purchased from PerkinElmer (#AD0067 and #AD0201). Peptide Biot-EQEDEPEGDYFEWLEES-amide (SEQ ID NO.: 1) was purchased from Quality Controlled Biochemicals, MA (Q307-166). Assay buffer consisted of 50 mM Tris, pH=7.5, 10 mM MgCl2, 0.01% Brij-35, 0.1% BSA, 1 mM EGTA, 5% Glycerol and 5 mM DTT. To assess the inhibition of the enzymatic activity, compound was serially diluted in DMSO and a volume of 0.1 μL was transferred to the wells of a black regular volume 384-well plate (Greiner #781076) using Echo Liquid Handler (Labcyte Inc.). Positive and Negative control wells contained 0.1 μL of DMSO.
Enzyme (catalytic domain JH1 of JAK2) was diluted in assay buffer, and the Multidrop Combi liquid handler (Thermo Scientific) was used to dispense 10 μL to each well (except positive control wells, to which 10 μL of assay buffer were dispensed instead of protein).
Plate was centrifuged and reaction was started by addition of 10 μL of substrate solution containing biotinylated peptide and ATP to all wells. Plate was again centrifuged and enzymatic reaction was allowed to proceed for 60 min. at 25° C. Final concentrations in the assay were as follows: 0.02 nM protein, 30 uM ATP, 0.5 uM biotinylated peptide. Reaction was stopped by addition of 10 μL of solution, containing 45 mM EDTA, 144 nM APC/225 nM Streptavidin, and 4.5 nM Eu-Ab in detection buffer: 50 mM Tris, pH=7.8, 150 mM NaCl, 0.5 mg/ml BSA.
Plate was centrifuged and incubated for 30 min. at room temperature. HTRF signal was measured on PHERAstar plate reader instrument (BMG Labtech) with excitation at 337 nm and emissions at 620 nm and 665 nm. Data analysis tools integrated in Genedata Screener software were used to analyze the results. Raw data was normalized to percent of vehicle (DMSO) Negative control, after subtracting no-enzyme Positive inhibitor control. The IC50 values were derived by fitting the data to a four parameter logistic equation producing a sigmoidal dose-response curve using the following equation: Y=Bottom+(Top−Bottom)/(1+10^((Log IC50−X)*Hill slope)) where X is the logarithm of inhibitor concentration and Y is the response.
A general note: Time-resolved FRET reads energy transfer from a long-lived donor to a nearby acceptor.

For assay [2], the target named is T2, pseudo-kinase domain (JH2) of human V617F mutant JAK2 (Homo sapiens, UniProt O60674, F794H/V617F/W659A/W777A).
T2 construct: pseudo-kinase domain (JH2, amino-acids 536-812 with 3 surface mutations W659A, W777A, F794H); purchased BPS Bioscience 79498; host or cells: baculovirus expression system
Description: JAK2 LanthaScreen JH2-V617F Binding Assay. Conditions: 50 nM Fluorescent JAK2-JH2 Tracer, 1 hour at 25° C., read-out: JH2 BIND V617F. As to the method:
Example B. JAK2 LanthaScreen JH2-V617F Binding Assay
JAK2 JH2-V617F binding assay utilizes pseudo-kinase domain (JH2, amino-acids 536-812 with 3 surface mutations W659A, W777A, F794H) of human V617F mutant JAK2 expressed as C-terminal His-Avi-tagged, biotinylated protein in a baculovirus expression system (BPS Bioscience, Catalog #79498). The assay was conducted in black 384-well polystyrene plates in a final reaction volume of 20 μL. JAK2 JH2-V617F (0.26 nM) was incubated with compounds (100 nL serially diluted in DMSO) in the presence of 50 nM Fluorescent JAK2-JH2 Tracer (MedChem Express Catalog #HY-102055) and 0.25 nM Streptavidin-Tb cryptate (Cisbio Part #610SATLB) in assay buffer (50 mM Tris, pH=7.5, 10 mM MgCl2, 0.01% Brij-35, 0.1% BSA, 1 mM EGTA, 5% Glycerol and 5 mM DTT). Non-specific binding was accessed in the presence of 2 mM ATP. After incubation for 1 hour at 25° C., LanthaScreen signals were read on a PHERAstar FS plate reader (BMG LABTECH). Data was analyzed with IDBS XLfit and GraphPad Prism 5.0 software using a four parameter dose response curve to determine IC50 for each compound.

T1 sequence (O60674 849-1124 limits assumed): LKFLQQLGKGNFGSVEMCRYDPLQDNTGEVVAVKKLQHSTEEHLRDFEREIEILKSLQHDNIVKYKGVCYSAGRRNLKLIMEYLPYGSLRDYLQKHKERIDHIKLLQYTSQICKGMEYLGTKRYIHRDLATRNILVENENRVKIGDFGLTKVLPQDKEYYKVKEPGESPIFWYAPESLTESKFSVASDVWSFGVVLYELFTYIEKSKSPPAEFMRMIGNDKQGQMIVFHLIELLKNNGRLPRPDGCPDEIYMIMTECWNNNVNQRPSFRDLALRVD
T2 sequence (O60674 536-812 V617F/W659A/W777A/F794H): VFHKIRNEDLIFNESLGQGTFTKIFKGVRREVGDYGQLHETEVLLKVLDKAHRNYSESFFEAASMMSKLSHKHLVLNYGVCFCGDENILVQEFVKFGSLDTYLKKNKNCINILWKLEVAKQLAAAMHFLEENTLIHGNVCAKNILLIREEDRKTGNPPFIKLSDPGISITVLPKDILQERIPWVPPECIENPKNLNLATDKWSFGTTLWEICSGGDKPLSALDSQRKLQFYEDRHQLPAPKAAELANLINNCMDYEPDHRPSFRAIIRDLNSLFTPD

As for `CNc1ncc(-c2cccc(-c3cnn(C4CN(Cc5cccc(C(=O)N6CCCC6)n5)C4)c3)c2OC)c2cc(NC(=O)C3CC3)nnc12` [Example 15, N-(5-(2-Methoxy-3-(1-(1-((6-(pyrrolidine-1-carbonyl)pyridin-2-yl)methyl)azetidin-3-yl)-1H-pyrazol-4-yl)phenyl)-8-(methylamino)pyrido[3,4-c]pyridazin-3-yl)cyclopropane-carboxamide], the IC50 was above 1000 nM in assay [1] and at most 10 nM in assay [2].

Regarding `CNc1ncc(-c2cccc(-c3cnn(C4CN(Cc5cccc(C(=O)N(C)C)n5)C4)c3)c2OC)c2cc(NC(=O)C3CC3)ncc12` [Example 1, 6-((3-(4-(3-(6-(Cyclopropanecarboxamido)-1-(methylamino)-2,7-naphthyridin-4-yl)-2-methoxyphenyl)-1H-pyrazol-1-yl)azetidin-1-yl)methyl)-N,N-dimethylpicolinamide], the results for the IC50 in assay [1] and in assay [2] were above 1000 nM and at most 10 nM, respectively.

Take `COc1c(-c2cnn(C3CN(Cc4cccc(C(=O)N5CCCC5)n4)C3)c2)cccc1-c1cnc(N)c2cnc(NC(=O)C3CC3)cc12` [Example 18, N-(8-Amino-5-(2-methoxy-3-(1-(1-((6-(pyrrolidine-1-carbonyl)pyridin-2-yl)methyl)azetidin-3-yl)-1H-pyrazol-4-yl)phenyl)-2,7-naphthyridin-3-yl)cyclopropane-carboxamide]: the figures for the IC50 in assay [1] and in assay [2] were 10 to 100 nM and at most 10 nM, respectively.

Consider `CNc1ncc(-c2cccc(-c3cnn(C4CN(CC56CCCC(C(=O)N(C)C)(C5)C6)C4)c3)c2OC)c2cc(NC(=O)C3CC3)ncc12` [Example 24, 5-((3-(4-(3-(6-(Cyclopropanecarboxamido)-1-(methylamino)-2,7-naphthyridin-4-yl)-2-methoxyphenyl)-1H-pyrazol-1-yl)azetidin-1-yl)methyl)-N,N-dimethylbicyclo[3.1.1]heptane-1-carboxamide], for which the IC50 in assay [1] is above 1000 nM; in assay [2] it was 10 to 100 nM.

Take `CNc1ncc(-c2cccc(-c3cnn(C4CN(Cc5csc(C(=O)N(C)CC(F)(F)F)n5)C4)c3)c2OC)c2cc(NC(=O)C3CC3)ncc12` [Example 5, 4-((3-(4-(3-(6-(Cyclopropane-carboxamido)-1-(methylamino)-2,7-naphthyridin-4-yl)-2-methoxyphenyl)-1H-pyrazol-1-yl)azetidin-1-yl)methyl)-N-methyl-N-(2,2,2-trifluoroethyl) thiazole-2-carboxamide]: the IC50 is above 1000 nM in assay [1] and 10 to 100 nM in assay [2].

Consider `CNc1ncc(-c2cccc(-c3cnn(C4CCN(Cc5ccccn5)CC4)c3)c2OC)c2cc(NC(=O)C3CC3)ncc12` [Example 9, N-(5-(2-Methoxy-3-(1-(1-(pyridin-2-ylmethyl)piperidin-4-yl)-1H-pyrazol-4-yl)phenyl)-8-(methylamino)-2,7-naphthyridin-3-yl)cyclopropanecarboxamide], for which the IC50 is above 1000 nM in assay [1] and 10 to 100 nM in assay [2].

As to `CNc1ncc(-c2cccc(-c3cnn(C4CN(Cc5cccc(C(=O)N(C)C6CC6)n5)C4)c3)c2OC)c2cc(NC(=O)C3CC3)nnc12` [Example 12, 6-((3-(4-(3-(3-(Cyclopropanecarboxamido)-8-(methylamino)pyrido[3,4-c]pyridazin-5-yl)-2-methoxyphenyl)-1H-pyrazol-1-yl)azetidin-1-yl)methyl)-N-cyclopropyl-N-methylpicolinamide], the IC50 is above 1000 nM in assay [1] and at most 10 nM in assay [2].

For the molecule `CNc1ncc(-c2cccc(-c3cnn(C4CN(Cc5cccc(C(=O)N(C)CC6CC6)n5)C4)c3)c2OC)c2cc(NC(=O)C3CC3)nnc12` [Example 13, 6-((3-(4-(3-(3-(Cyclopropane-carboxamido)-8-(methylamino)pyrido[3,4-c]pyridazin-5-yl)-2-methoxy-phenyl)-1H-pyrazol-1-yl)azetidin-1-yl)methyl)-N-(cyclopropyl-methyl)-N-methyl-picolinamide], the IC50 in assay [1] is above 1000 nM; in assay [2], at most 10 nM.

As to `CNc1ncc(-c2cccc(-c3cnn(C(C)C(=O)O)c3)c2OC)c2cc(NC(=O)C3CC3)ncc12` (stereo not shown) [Example 10, 2-(4-(3-(6-(Cyclopropanecarboxamido)-1-(methylamino)-2,7-naphthyridin-4-yl)-2-methoxyphenyl)-1H-pyrazol-1-yl)propanoic acid], the figures for the IC50 in assay [1] and in assay [2] were above 1000 nM and 10 to 100 nM, respectively.

Turning to `CNc1ncc(-c2cccc(-c3cnn(C4CN(Cc5cccc(C(F)F)n5)C4)c3)c2OC)c2cc(NC(=O)C3CC3)ncc12` [Example 7, N-(5-(3-(1-(1-((6-(Difluoromethyl)pyridin-2-yl)methyl)azetidin-3-yl)-1H-pyrazol-4-yl)-2-methoxyphenyl)-8-(methylamino)-2,7-naphthyridin-3-yl)cyclopropanecarboxamide], the IC50 is above 1000 nM in assay [1] and at most 10 nM in assay [2].

On to `COc1c(-c2cnn(C3CN(Cc4cccc(C(=O)N5CCC(F)(F)C5)n4)C3)c2)cccc1-c1cnc(N)c2cnc(NC(=O)C3CC3)cc12` [Example 19, N-(8-amino-5-(3-(1-(1-((6-(3,3-difluoro-pyrrolidine-1-carbonyl)pyridin-2-yl)methyl)azetidin-3-yl)-1H-pyrazol-4-yl)-2-methoxy-phenyl)-2,7-naphthyridin-3-yl)cyclopropane-carboxamide], for which the IC50 in assay [1] was 10 to 100 nM; in assay [2], at most 10 nM.

With `CNc1ncc(-c2cccc(-c3cnn(C4CN(Cc5cccc(C(=O)N6CCCC6)n5)C4)c3)c2OC)c2cc(NC(=O)C3CC3)ncc12` [Example 4, N-(5-(2-Methoxy-3-(1-(1-((6-(pyrrolidine-1-carbonyl)pyridin-2-yl)methyl)azetidin-3-yl)-1H-pyrazol-4-yl)phenyl)-8-(methylamino)-2,7-naphthyridin-3-yl)cyclopropane-carboxamide], the IC50 was above 1000 nM in assay [1] and at most 10 nM in assay [2].

In the case of `CNc1ncc(-c2cccc(-c3cnn(C4CN(Cc5cccc(C(=O)N(C)C6CC6)n5)C4)c3)c2OC)c2cc(NC(=O)C3CC3)ncc12` [Example 2, 6-((3-(4-(3-(6-(Cyclopropane-carboxamido)-1-(methylamino)-2,7-naphthyridin-4-yl)-2-methoxyphenyl)-1H-pyrazol-1-yl)azetidin-1-yl)methyl)-N-cyclopropyl-N-methyl-picolinamide], the IC50 in assay [1] is above 1000 nM; in assay [2], at most 10 nM.

Regarding `COc1c(-c2cnn(C3CN(Cc4cccc(C(=O)N(C)C)n4)C3)c2)cccc1-c1cnc(N)c2cnc(NC(=O)C3CC3)cc12` [Example 16, 6-((3-(4-(3-(1-Amino-6-(cyclopropanecarboxamido)-2,7-naphthyridin-4-yl)-2-methoxyphenyl)-1H-pyrazol-1-yl)azetidin-1-yl)methyl)-N,N-dimethylpicolinamide], the results for the IC50 in assay [1] and in assay [2] were 10 to 100 nM and at most 10 nM, respectively.
